Reference: ChEMBL document CHEMBL5291721, “A preclinical secondary pharmacology resource illuminates target-adverse drug reaction associations of marketed drugs” (Nat Commun, 2023)

Key:
[1] = biological target: Delta-type opioid receptor (Homo sapiens, UniProt P41143)
Estrogen receptor = biological target: T1, Estrogen receptor (Homo sapiens, UniProt P03372)
T1 sequence (P03372 whole entry): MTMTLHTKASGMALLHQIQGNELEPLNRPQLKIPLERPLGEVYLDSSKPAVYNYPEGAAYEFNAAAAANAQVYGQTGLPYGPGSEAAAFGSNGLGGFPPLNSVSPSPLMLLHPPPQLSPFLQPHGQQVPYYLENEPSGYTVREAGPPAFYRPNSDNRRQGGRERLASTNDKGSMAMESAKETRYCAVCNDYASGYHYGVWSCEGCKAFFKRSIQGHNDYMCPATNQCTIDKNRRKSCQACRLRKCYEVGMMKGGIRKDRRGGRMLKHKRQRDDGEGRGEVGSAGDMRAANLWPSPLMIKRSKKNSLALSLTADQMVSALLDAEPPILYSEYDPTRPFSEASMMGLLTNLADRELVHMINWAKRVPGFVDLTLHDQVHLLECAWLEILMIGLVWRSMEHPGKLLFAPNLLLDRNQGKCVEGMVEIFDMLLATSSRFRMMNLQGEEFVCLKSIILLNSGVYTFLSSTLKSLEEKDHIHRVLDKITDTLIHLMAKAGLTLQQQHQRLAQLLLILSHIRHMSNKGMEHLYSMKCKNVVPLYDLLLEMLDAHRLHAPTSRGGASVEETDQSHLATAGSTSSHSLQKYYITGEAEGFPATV

Histamine H2 receptor = Histamine H2 receptor (Homo sapiens, UniProt P25021); format: functional, cell-based
Histamine H2 receptor, sequence (P25021 whole entry): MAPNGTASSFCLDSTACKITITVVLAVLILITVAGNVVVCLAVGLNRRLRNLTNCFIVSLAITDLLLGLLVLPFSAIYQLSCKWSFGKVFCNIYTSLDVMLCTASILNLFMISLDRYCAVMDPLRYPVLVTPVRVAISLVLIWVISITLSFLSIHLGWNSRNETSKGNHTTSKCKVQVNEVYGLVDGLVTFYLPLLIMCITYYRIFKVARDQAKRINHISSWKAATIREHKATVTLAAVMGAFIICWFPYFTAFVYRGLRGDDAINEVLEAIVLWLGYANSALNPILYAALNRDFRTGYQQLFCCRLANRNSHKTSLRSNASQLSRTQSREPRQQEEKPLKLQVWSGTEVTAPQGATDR

[2] = biological target: Beta-2 adrenergic receptor (Homo sapiens, UniProt P07550)
Beta-2 adrenergic receptor, sequence (P07550 whole entry): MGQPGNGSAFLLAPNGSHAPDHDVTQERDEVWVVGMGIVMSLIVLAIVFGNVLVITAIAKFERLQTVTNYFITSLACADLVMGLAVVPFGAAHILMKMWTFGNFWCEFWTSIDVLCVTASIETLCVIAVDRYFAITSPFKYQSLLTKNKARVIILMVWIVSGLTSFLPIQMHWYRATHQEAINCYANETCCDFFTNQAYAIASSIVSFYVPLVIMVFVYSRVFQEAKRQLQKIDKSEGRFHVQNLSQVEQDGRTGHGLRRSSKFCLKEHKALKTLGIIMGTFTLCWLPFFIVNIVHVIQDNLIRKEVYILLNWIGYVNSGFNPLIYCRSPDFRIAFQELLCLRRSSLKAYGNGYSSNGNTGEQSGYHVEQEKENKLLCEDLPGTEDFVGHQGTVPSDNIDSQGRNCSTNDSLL

[3] = biological target: T2, Muscarinic acetylcholine receptor M2 (Homo sapiens, UniProt P08172); format: functional, cell-based
T2 sequence (P08172 whole entry): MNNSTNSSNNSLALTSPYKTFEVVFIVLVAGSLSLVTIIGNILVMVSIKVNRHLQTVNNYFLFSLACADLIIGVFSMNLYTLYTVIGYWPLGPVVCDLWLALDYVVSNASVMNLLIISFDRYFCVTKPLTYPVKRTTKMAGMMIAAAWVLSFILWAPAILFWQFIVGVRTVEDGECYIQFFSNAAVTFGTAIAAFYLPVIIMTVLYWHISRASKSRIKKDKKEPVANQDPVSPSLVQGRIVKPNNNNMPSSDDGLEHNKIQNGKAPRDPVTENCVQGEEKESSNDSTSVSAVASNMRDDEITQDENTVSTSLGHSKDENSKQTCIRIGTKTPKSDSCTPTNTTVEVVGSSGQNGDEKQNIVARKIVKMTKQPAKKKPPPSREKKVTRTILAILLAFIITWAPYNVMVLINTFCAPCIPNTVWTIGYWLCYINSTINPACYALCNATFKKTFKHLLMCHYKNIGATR

[4] = biological target: Sodium-dependent noradrenaline transporter (Homo sapiens, UniProt P23975)
Sodium-dependent noradrenaline transporter, sequence (P23975 whole entry): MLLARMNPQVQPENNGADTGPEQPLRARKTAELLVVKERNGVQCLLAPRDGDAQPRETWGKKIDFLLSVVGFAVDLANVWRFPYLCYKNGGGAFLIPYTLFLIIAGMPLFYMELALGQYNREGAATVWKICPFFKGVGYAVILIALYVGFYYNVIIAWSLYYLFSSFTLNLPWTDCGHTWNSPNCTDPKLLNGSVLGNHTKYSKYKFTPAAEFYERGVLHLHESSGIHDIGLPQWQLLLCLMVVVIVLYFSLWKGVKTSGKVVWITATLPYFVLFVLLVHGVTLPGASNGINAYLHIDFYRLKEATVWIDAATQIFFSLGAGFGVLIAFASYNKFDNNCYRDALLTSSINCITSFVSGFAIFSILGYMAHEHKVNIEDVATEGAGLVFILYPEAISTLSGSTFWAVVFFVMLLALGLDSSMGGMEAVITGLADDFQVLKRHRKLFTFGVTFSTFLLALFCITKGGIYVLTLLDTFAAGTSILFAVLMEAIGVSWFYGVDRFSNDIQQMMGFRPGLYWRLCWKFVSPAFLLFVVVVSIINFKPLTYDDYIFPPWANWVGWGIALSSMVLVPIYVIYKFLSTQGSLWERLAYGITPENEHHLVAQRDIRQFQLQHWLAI

[5] = biological target: T2, Muscarinic acetylcholine receptor M2; format: functional, cell-based; remark: listed apart in the source
Motilin receptor = Motilin receptor (Homo sapiens, UniProt O43193)
Motilin receptor, sequence (O43193 whole entry): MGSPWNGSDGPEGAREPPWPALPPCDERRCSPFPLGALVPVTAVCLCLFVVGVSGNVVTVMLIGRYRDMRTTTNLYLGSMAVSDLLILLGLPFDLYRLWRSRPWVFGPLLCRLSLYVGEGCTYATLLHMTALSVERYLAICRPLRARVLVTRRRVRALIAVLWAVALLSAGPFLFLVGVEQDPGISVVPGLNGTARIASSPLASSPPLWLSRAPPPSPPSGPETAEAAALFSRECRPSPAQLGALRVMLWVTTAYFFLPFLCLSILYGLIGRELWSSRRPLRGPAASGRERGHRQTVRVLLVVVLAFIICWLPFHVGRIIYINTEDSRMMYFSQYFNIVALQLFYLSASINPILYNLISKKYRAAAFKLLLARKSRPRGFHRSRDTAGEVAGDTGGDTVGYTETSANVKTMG

B2 bradykinin receptor = biological target: T3, B2 bradykinin receptor (Homo sapiens, UniProt P30411)
T3 sequence (P30411 whole entry): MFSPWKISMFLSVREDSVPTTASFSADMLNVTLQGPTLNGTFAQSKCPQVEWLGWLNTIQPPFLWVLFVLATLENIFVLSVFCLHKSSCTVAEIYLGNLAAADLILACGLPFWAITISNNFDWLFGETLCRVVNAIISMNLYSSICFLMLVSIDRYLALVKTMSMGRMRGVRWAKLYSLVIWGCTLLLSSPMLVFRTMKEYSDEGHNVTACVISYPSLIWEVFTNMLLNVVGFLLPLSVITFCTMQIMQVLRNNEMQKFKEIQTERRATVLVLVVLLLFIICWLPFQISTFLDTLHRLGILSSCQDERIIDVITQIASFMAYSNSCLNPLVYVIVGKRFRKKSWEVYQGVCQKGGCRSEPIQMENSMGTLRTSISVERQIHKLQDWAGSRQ

[6] = biological target: T4, Gastrin/cholecystokinin type B receptor (Homo sapiens, UniProt P32239)
T4 sequence (P32239 whole entry): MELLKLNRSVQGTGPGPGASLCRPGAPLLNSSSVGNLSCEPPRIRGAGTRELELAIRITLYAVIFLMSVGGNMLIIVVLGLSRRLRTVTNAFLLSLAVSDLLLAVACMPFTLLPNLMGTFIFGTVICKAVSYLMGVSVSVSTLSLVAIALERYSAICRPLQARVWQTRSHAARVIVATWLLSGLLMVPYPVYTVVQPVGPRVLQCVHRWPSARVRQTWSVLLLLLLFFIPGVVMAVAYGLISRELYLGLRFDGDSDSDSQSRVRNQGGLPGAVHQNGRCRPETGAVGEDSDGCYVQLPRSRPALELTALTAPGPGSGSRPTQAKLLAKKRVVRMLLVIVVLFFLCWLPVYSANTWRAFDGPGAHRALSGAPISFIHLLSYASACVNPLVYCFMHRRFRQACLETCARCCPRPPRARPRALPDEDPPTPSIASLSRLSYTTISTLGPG

D(1A) dopamine receptor = D(1A) dopamine receptor (Homo sapiens, UniProt P21728); format: functional, cell-based
D(1A) dopamine receptor, sequence (P21728 whole entry): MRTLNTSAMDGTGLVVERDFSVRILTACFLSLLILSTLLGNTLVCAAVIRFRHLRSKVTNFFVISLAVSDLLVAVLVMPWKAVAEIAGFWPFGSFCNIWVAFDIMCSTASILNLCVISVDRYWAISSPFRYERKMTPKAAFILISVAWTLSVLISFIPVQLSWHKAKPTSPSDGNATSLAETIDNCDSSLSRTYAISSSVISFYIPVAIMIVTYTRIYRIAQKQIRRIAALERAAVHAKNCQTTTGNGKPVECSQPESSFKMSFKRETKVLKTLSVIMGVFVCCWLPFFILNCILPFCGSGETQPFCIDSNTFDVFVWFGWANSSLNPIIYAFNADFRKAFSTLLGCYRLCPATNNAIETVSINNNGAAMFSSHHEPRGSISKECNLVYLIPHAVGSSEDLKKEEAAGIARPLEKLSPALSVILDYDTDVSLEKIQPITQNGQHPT

[7] = biological target: 3',5'-cyclic-AMP phosphodiesterase 4D (Homo sapiens, UniProt Q08499); format: functional
3',5'-cyclic-AMP phosphodiesterase 4D, sequence (Q08499 whole entry): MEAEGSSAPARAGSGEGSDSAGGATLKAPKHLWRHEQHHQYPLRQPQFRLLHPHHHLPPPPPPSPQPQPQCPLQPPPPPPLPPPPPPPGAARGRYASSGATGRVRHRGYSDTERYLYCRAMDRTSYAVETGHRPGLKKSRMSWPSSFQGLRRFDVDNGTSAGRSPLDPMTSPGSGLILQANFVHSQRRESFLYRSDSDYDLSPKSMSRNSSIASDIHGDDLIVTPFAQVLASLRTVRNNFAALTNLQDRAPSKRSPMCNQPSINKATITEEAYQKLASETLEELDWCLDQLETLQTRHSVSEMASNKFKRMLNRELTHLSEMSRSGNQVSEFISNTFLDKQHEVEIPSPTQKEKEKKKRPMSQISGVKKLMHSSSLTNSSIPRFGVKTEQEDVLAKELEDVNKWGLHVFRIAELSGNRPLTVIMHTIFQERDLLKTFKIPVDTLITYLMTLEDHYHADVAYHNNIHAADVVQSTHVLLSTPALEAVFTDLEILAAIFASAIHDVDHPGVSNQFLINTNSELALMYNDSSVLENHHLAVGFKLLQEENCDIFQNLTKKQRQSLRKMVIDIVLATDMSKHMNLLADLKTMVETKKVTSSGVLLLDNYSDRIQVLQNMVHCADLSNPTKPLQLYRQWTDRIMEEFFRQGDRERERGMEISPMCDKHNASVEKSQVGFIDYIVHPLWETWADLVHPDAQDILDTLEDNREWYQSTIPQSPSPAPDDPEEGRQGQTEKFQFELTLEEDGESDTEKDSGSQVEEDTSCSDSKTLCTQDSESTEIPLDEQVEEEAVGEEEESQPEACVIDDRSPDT

[8] = biological target: T5, Muscarinic acetylcholine receptor M1 (Homo sapiens, UniProt P11229); format: functional, cell-based
T5 sequence (P11229 whole entry): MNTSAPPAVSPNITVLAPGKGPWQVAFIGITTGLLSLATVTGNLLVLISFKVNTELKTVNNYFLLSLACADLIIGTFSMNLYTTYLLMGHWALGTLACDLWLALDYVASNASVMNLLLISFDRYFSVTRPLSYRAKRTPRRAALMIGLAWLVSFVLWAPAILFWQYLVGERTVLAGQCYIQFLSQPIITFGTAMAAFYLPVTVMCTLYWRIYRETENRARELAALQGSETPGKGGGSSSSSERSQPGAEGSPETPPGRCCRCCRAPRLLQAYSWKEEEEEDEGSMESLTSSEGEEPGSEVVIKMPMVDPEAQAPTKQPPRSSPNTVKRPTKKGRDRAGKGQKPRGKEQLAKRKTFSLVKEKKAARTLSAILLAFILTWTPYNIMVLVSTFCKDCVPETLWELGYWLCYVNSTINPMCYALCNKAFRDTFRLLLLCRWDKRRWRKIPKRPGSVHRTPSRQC

[9] = biological target: Gamma-aminobutyric acid receptor subunit alpha-1 (Rattus norvegicus, UniProt P62813)
Gamma-aminobutyric acid receptor subunit alpha-1, sequence (P62813 whole entry): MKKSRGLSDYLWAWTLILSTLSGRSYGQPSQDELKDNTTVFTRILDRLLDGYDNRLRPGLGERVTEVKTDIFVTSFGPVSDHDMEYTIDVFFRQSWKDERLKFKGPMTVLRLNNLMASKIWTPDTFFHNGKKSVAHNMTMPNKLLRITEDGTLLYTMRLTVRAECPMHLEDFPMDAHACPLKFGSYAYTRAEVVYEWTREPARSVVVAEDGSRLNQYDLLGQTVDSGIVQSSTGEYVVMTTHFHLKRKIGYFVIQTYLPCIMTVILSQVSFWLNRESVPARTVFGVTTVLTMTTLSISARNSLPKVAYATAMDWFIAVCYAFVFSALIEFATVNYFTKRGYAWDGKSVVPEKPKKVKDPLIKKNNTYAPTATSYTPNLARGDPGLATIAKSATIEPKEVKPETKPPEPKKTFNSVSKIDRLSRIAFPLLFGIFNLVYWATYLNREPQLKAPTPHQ
Further: assay procedure not described here.

Delta-type opioid receptor, sequence (P41143 whole entry): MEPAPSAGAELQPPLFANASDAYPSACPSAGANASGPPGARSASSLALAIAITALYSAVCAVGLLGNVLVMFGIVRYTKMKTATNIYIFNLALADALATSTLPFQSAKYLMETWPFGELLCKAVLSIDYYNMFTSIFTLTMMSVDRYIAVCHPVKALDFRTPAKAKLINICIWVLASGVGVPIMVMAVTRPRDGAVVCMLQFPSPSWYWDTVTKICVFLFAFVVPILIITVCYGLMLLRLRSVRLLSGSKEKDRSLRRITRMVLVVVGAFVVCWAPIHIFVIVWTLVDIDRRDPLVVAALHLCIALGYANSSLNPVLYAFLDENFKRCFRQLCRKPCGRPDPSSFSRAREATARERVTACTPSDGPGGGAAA

In the case of `CCCN(CCC)C(=O)Cc1c(-c2ccc(Cl)cc2)nc2ccc(Cl)cn12` [ALPIDEM], the AC50 [1] is reported as > 30 µM, the AC50 (Estrogen receptor) is reported as > 30 µM and the AC50 (Histamine H2 receptor) is reported as > 30 µM. For the same molecule, the AC50 [2] was > 30 µM, the AC50 [3] was > 30 µM and the AC50 [4] was > 30 µM. The AC50 [5] was > 30 µM, the AC50 (Motilin receptor) was > 30 µM and the AC50 (B2 bradykinin receptor) was > 30 µM. The AC50 [6] was > 30 µM, the AC50 (D(1A) dopamine receptor) was > 30 µM and the AC50 [7] was 13 µM. The AC50 [8] was > 30 µM and the AC50 [9] was 20 nM.
`CC(=O)O[C@]1(C(C)=O)CC[C@H]2[C@@H]3C=C(C)C4=CC(=O)CC[C@@H]4[C@H]3CC[C@@]21C` [NOMEGESTROL ACETATE] was tested, and the AC50 [1] was > 30 µM, the AC50 (Estrogen receptor) was > 30 µM and the AC50 (Histamine H2 receptor) was > 30 µM. The AC50 [3] was > 30 µM, the AC50 [4] was > 30 µM and the AC50 [5] was > 30 µM. For the same molecule, the AC50 (D(1A) dopamine receptor) was > 30 µM, the AC50 [7] was 14 µM and the AC50 [8] was > 30 µM. For the same molecule, the AC50 [9] was 4400 nM.
